Measurements taken from patent US11339128B2 (Firmenich Incorporated, priority 2014, dated 2022).

Target: T1, T1R2/T1R3 taste receptor (Homo sapiens, UniProt Q7RTX0+Q8TE23)
T1 sequence (Q8TE23 20-839): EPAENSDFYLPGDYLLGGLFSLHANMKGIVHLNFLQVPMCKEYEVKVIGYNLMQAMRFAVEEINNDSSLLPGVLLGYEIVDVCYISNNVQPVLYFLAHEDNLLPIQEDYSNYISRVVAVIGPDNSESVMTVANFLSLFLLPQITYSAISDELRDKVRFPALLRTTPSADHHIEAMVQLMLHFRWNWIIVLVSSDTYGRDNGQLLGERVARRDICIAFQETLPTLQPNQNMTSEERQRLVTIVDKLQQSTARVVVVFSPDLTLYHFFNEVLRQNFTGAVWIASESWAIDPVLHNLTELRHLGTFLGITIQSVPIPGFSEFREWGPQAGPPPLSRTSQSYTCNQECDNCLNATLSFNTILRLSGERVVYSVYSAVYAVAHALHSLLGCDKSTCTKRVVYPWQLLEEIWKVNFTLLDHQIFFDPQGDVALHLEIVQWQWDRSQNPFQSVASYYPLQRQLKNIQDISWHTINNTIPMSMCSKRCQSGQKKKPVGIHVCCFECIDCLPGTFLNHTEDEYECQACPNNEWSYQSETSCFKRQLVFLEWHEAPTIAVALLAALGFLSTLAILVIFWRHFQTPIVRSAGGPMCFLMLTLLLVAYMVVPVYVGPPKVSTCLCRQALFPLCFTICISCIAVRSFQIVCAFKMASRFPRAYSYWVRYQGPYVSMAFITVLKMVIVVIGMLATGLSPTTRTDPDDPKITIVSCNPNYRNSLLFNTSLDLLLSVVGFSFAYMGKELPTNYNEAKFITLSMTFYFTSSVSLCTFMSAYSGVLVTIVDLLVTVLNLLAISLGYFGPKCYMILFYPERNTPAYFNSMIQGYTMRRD
T1 sequence (Q7RTX0 21-852): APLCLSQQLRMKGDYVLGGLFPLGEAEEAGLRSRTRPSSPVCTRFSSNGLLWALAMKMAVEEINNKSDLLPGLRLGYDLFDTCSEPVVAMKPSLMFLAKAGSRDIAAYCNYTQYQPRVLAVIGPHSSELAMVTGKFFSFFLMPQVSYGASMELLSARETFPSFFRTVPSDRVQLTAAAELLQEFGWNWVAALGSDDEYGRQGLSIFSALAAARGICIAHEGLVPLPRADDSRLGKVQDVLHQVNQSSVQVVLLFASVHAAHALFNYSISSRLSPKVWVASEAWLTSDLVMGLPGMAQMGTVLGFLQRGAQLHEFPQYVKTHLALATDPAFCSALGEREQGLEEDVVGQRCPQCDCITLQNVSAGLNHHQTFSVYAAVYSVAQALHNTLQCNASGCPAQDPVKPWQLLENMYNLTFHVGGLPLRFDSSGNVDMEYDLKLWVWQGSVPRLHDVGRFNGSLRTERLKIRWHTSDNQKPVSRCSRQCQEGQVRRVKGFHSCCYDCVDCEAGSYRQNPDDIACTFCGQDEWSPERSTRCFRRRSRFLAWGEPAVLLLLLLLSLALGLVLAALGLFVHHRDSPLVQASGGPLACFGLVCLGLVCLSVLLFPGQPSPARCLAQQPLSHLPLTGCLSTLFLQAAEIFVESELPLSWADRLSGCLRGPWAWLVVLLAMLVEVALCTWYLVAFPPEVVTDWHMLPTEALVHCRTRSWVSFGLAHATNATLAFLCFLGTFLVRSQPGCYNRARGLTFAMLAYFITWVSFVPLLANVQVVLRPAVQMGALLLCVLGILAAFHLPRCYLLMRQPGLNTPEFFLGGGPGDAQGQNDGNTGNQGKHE
Experiment: Receptor-based assay: sweetener EC50 enhancement ratio with and without test compound
Assay type: cell-based
Conditions: for Sucrose Enhancement EC50 Ratio: sweetener sucrose; for Sucralose Enhancement EC50 Ratio: sweetener sucralose
Protocol: Potencies (EC50 values) for the sweeteners sucrose, sucralose, and fructose were measured against the T1R2/T1R3 taste receptor. EC50 was determined using the sweetener alone and in the presence of 1 μM, 3 μM, 10 μM, or 50 μM of test compound. EC50 ratios were calculated by the ratio of potency with and without the test compound. An “A” value indicates an enhancement ratio of greater than 1 and less than 10. A “B” value indicates an enhancement ratio from 10 to 20. A “C” value indicates an enhancement ratio greater than 20.

Row | Structure (SMILES) | Sucrose Enhancement EC50 Ratio (1 μM test compound) | Sucrose Enhancement EC50 Ratio (3 μM test compound) | Sucrose Enhancement EC50 Ratio (10 μM test compound) | Sucralose Enhancement EC50 Ratio (10 μM test compound) | Sucralose Enhancement EC50 Ratio (3 μM test compound)
1 | Cc1nc2cccc(O[C@H]3CC[C@@H](C)CC3)c2c(N)c1C(=O)O [Compound 102] | A (an enhancement ratio of greater than 1 and less than 10) | A (an enhancement ratio of greater than 1 and less than 10) | B (an enhancement ratio from 10 to 20) | – | –
2 | Cc1nc2cccc(OC3CCC(C)(C)CC3)c2c(N)c1C(=O)O [Compound 103] | C (an enhancement ratio greater than 20) | C (an enhancement ratio greater than 20) | – | – | –
3 | Cc1nc2cccc(O[C@H]3CC[C@H](C(C)(C)C)CC3)c2c(N)c1C(=O)O [Compound 104] | A (an enhancement ratio of greater than 1 and less than 10) | C (an enhancement ratio greater than 20) | – | – | –
4 | CO[C@H]1CC[C@H](Oc2cccc3nc(C)c(C(=O)O)c(N)c23)CC1 [Compound 105] | A (an enhancement ratio of greater than 1 and less than 10) | A (an enhancement ratio of greater than 1 and less than 10) | C (an enhancement ratio greater than 20) | – | –
5 | CO[C@H]1CC[C@@H](Oc2cccc3nc(C)c(C(=O)O)c(N)c23)CC1 [Compound 106] | A (an enhancement ratio of greater than 1 and less than 10) | A (an enhancement ratio of greater than 1 and less than 10) | A (an enhancement ratio of greater than 1 and less than 10) | – | –
6 | Cc1nc2cccc(O[C@H]3CC[C@H](O)CC3)c2c(N)c1C(=O)O [Compound 107] | A (an enhancement ratio of greater than 1 and less than 10) | A (an enhancement ratio of greater than 1 and less than 10) | B (an enhancement ratio from 10 to 20) | – | –
7 | Cc1nc2cccc(O[C@H]3CC[C@@H](O)CC3)c2c(N)c1C(=O)O [Compound 108] | A (an enhancement ratio of greater than 1 and less than 10) | A (an enhancement ratio of greater than 1 and less than 10) | A (an enhancement ratio of greater than 1 and less than 10) | – | –
8 | Cc1nc2cccc(O[C@H]3CC[C@H](CO)CC3)c2c(N)c1C(=O)O [Compound 109] | B (an enhancement ratio from 10 to 20) | C (an enhancement ratio greater than 20) | C (an enhancement ratio greater than 20) | – | –
9 | CCc1nc2cccc(OC3CCCCC3)c2c(N)c1C(=O)O [Compound 200] | A (an enhancement ratio of greater than 1 and less than 10) | A (an enhancement ratio of greater than 1 and less than 10) | A (an enhancement ratio of greater than 1 and less than 10) | – | –
10 | CCc1nc2cccc(O[C@H]3CC[C@@H](C)CC3)c2c(N)c1C(=O)O [Compound 202] | A (an enhancement ratio of greater than 1 and less than 10) | A (an enhancement ratio of greater than 1 and less than 10) | A (an enhancement ratio of greater than 1 and less than 10) | – | –
11 | CCc1nc2cccc(OC3CCC(C)(C)CC3)c2c(N)c1C(=O)O [Compound 203] | A (an enhancement ratio of greater than 1 and less than 10) | A (an enhancement ratio of greater than 1 and less than 10) | B (an enhancement ratio from 10 to 20) | – | –
12 | CCc1nc2cccc(O[C@H]3CC[C@H](C(C)(C)C)CC3)c2c(N)c1C(=O)O [Compound 204] | A (an enhancement ratio of greater than 1 and less than 10) | A (an enhancement ratio of greater than 1 and less than 10) | A (an enhancement ratio of greater than 1 and less than 10) | – | –
13 | CCc1nc2cccc(O[C@H]3CC[C@H](COC)CC3)c2c(N)c1C(=O)O [Compound 205] | A (an enhancement ratio of greater than 1 and less than 10) | B (an enhancement ratio from 10 to 20) | B (an enhancement ratio from 10 to 20) | B (an enhancement ratio from 10 to 20) | –
14 | CCc1nc2cccc(O[C@H]3CC[C@H](CO)CC3)c2c(N)c1C(=O)O [Compound 206] | A (an enhancement ratio of greater than 1 and less than 10) | A (an enhancement ratio of greater than 1 and less than 10) | A (an enhancement ratio of greater than 1 and less than 10) | – | –
15 | CCCc1nc2cccc(O[C@H]3CC[C@H](C)CC3)c2c(N)c1C(=O)O [Compound 207] | A (an enhancement ratio of greater than 1 and less than 10) | A (an enhancement ratio of greater than 1 and less than 10) | A (an enhancement ratio of greater than 1 and less than 10) | – | –
16 | CCCc1nc2cccc(OC3CCC(C)(C)CC3)c2c(N)c1C(=O)O [Compound 208] | A (an enhancement ratio of greater than 1 and less than 10) | A (an enhancement ratio of greater than 1 and less than 10) | A (an enhancement ratio of greater than 1 and less than 10) | – | –
17 | Cc1nc2cccc(O[C@H]3CC[C@H](NC(=O)COCC(C)(C)C)CC3)c2c(N)c1C(=O)O [Compound 301, 4-Amino-2-methyl-5-((trans-4-(2-(neopentyloxy)acetamido)cyclohexyl)oxy) quinoline-3-carboxylic acid] | B (an enhancement ratio from 10 to 20) | B (an enhancement ratio from 10 to 20) | – | – | B (an enhancement ratio from 10 to 20)
18 | Cc1nc2cccc(O[C@H]3CC[C@H](N)CC3)c2c(N)c1C(=O)O.Cl [Compound 302, 4-Amino-5-((trans-4-aminocyclohexyl)oxy)-2-methylquinoline-3-carboxylic acid (HCl salt)] | A (an enhancement ratio of greater than 1 and less than 10) | A (an enhancement ratio of greater than 1 and less than 10) | – | – | –
19 | Cc1nc2cccc(O[C@H]3CC[C@H](NC(=O)CO)CC3)c2c(N)c1C(=O)O [Compound 303] | A (an enhancement ratio of greater than 1 and less than 10) | A (an enhancement ratio of greater than 1 and less than 10) | B (an enhancement ratio from 10 to 20) | A (an enhancement ratio of greater than 1 and less than 10) | –
20 | COCC(=O)N[C@H]1CC[C@H](Oc2cccc3nc(C)c(C(=O)O)c(N)c23)CC1 [Compound 304] | A (an enhancement ratio of greater than 1 and less than 10) | B (an enhancement ratio from 10 to 20) | A (an enhancement ratio of greater than 1 and less than 10) | – | –
21 | Cc1nc2cccc(O[C@H]3CC[C@H](NC(=O)COC(C)(C)C)CC3)c2c(N)c1C(=O)O [Compound 308] | B (an enhancement ratio from 10 to 20) | – | – | – | –
